Series [1] is described as follows: Ex vivo radio-HPLC analysis of mouse plasma after radiotracer injection. The conditions noted are these: for plasma concentration: 30 min after radiotracer injection; for increase of plasma concentration by ketoconazole pretreatment: both wild-type and knockout mice, ketoconazole 50 mg/kg i.p. Type of series: in vivo.
Series [2] is described as follows: Ex vivo radio-HPLC analysis of mouse whole brain after radiotracer injection. Type of series: in vivo. The conditions noted are these: for increase of brain concentration by ketoconazole pretreatment: ketoconazole 50 mg/kg i.p.; for brain concentration: 30 min after radiotracer injection.
The test system of a further series is P-glycoprotein (P-gp). The conditions noted are these: cited from earlier work.
The subject of another series is CYP3A4. The conditions noted are these: cited from earlier work.
A further series deals with cDNA-expressed CYP3A4. The conditions noted are these: in vitro; cited from earlier work.
Where [3] appears, read: P-gp knockout mice, baseline (no ketoconazole).
The mark [4] stands for this setting: P-gp knockout mice, ketoconazole 50 mg/kg i.p. pretreatment.
The mark [5] stands for this setting: wild-type mice, baseline (no ketoconazole).
Where [6] appears, read: wild-type mice, ketoconazole 50 mg/kg i.p. pretreatment.
The mark [7] stands for this setting: P-gp knockout mice, after [11C]loperamide.
The mark [8] stands for this setting: wild-type mice, after [11C]loperamide.

Regarding `CN([11CH3])C(=O)C(CCN1CCC(O)(c2ccc(Cl)cc2)CC1)(c1ccccc1)c1ccccc1` [[^11C]dLop] [[N-methyl-^11C]N-desmethyl-loperamide], the plasma concentration is 2.26 ± 0.54 % SUV in series [1] (setting [3]), 3.4 ± 0.4 % SUV in series [1] (setting [4]), 1.36 ± 0.18 % SUV in series [1] (setting [5]) and 3.3 ± 0.4 % SUV in series [1] (setting [6]). The “increase of plasma concentration by ketoconazole pretreatment” value in series [1] is listed as “about two-fold”. Also, in series [2] (setting [7]), the “increase of brain concentration by ketoconazole pretreatment” value is “two-fold”. The brain concentration came out at 37.1 ± 7.3 % SUV in series [2] (P-gp knockout mice, baseline); 37.9 ± 6.7 % SUV in series [2] (setting [4]); 1.93 ± 0.52 % SUV in series [2] (wild-type mice, baseline); 2.2 ± 0.5 % SUV in series [2] (setting [6]). Further, the “effect of ketoconazole pretreatment on brain concentration” value is listed as “little effect” in series [2] (either knockout or wild-type mice, after [11C]dLop) and “did not increase” in series [2] (setting [8]). The P-gp substrate result with P-glycoprotein (P-gp) was “avid substrate for P-gp”.
For `CN([11CH3])C(=O)C(CCN1CCC(O)(c2ccc(Cl)cc2)CC1)(c1ccccc1)c1ccccc1` [[^11C]loperamide] [[N-methyl-^11C]loperamide], the plasma concentration is on record as 7.37 ± 4.55 % SUV in series [1] (setting [3]), 17.1± 9.0 % SUV in series [1] (setting [4]), 10.3 ± 2.1 % SUV in series [1] (setting [5]) and 17.6 ± 5.9 % SUV in series [1] (setting [6]). The “increase of plasma concentration by ketoconazole pretreatment” value in series [1] was “about two-fold”. In addition, the “increase of brain concentration by ketoconazole pretreatment” value in series [2] (setting [7]) is recorded as “about two-fold”. Moreover, the brain concentration is 20.4 ± 3.2 % SUV in series [2] (P-gp knockout mice, baseline); 43.9 ± 14.0 % SUV in series [2] (setting [4]); 2.86 ± 0.97 % SUV in series [2] (wild-type mice, baseline); 2.9± 0.7 % SUV in series [2] (setting [6]). Further, the “effect of ketoconazole pretreatment on brain concentration” value in series [2] (setting [8]) is given as “no effect”.
Regarding `CC(=O)N1CCN(c2ccc(OCC3COC(Cn4ccnc4)(c4ccc(Cl)cc4Cl)O3)cc2)CC1` (stereo not drawn) [ketoconazole], the inhibition constant (Ki) in the series with CYP3A4 is […]. Besides, the “inhibition of the N-demethylation of loperamide” value with cDNA-expressed CYP3A4 is recorded as 90%.
In the case of `CN(C)C(=O)C(CCN1CCC(O)(c2ccc(Cl)cc2)CC1)(c1ccccc1)c1ccccc1` [loperamide, reference compound], in the series with P-glycoprotein (P-gp), the P-gp substrate entry was “avid substrate for P-gp”.

As usually defined, the Ki is a measure of affinity in units of concentration, obtained from inhibition or displacement.

The values above are taken from paper PMC2847595 (Nuclear medicine and biology, 2010).
